# Results from US20030186869A1, “Polymer compositions comprising antifibrotic agents, and methods of treatment, pharmaceutical compositions, and methods of preparation therefor” (priority 1990, published 2003).
# How the values were obtained:
# [1] = tested on: Sprague-Dawley rats housed under hypoxic conditions (10% O2); assay: Hypoxic rat model of pulmonary hypertension, CHOP-PEG; format: in vivo
# Experimental: The anti-pulmonary hypertensive activity of the polymer compositions was tested in the hypoxic rat model (as described in detail above). […] PH is manifested histologically by vascular remodeling (collagen accumulation and fibroblastic hypertrophy), increased right ventricular work-load, thickening of the pulmonary artery, and hypertrophy of the right ventricular cardiac wall. […] Drug treatment can take place during the acute induction phase (days 0-7) or following the establishment of experimental PH (day 7 or later). Intravenous (i.v.), subcutaneous (s.c.), intra-tracheal instillation, and osmotic minipump delivery have been tested. Experiments are scored by obtaining the mean RVP measurement. Results are expressed as either RVP in mm Hg, or preferably as the reduction in the RVP by the formula: […] On day 7 the RVP was measured and compared to animals maintained in normoxic conditions (10.4 mm Hg) and to untreated animals kept in hypoxic conditions (19.3 mm Hg).
# [2] = tested on: Sprague-Dawley rats housed under hypoxic conditions (10% O2); assay: as above; format: in vivo; conditions: 10 mg in 7-day minipump
# [3] = tested on: RFL-6 cells; assay: IC50 experiment, cytotoxicity / growth inhibition of RFL-6 rat fibroblast cells; format: cell-based
# Experimental: In this test two different synthesis batches of cis-hydroxyproline (CHOP) linked to PEG were tested, along with free CHOP. […] The differences between the two batches of CHOP-PEG are not significant.
substance,measurement,setting,value
poly(PEG-Lys-cHyp amide) [CHOP-PEG],reduction of RVP at minimum maximally effective dose,"[1]; 0.8 mg total dose per animal, acute PH",> 70%
same,reduction of RVP,"[1]; 10 mg in 7-day minipump, day 7",74%
same,reduction of RVP,"[1]; 7-day miniosmotic pump, both drug treated groups (1 or 4 mg, FIG. 18)",76%
same,reduction of RVP,"[1]; 7-day minipump, 1.0 mg",more than 50%
same,reduction of RVP,[1]; intratracheal instillation 90 mg on days 0 and 2,51%
same,RVP,"[1]; intratracheal instillation 90 mg on days 0 and 2, reduced from 20",15 mm Hg
same,effect on RVP in rats under normoxic conditions,"[1]; normoxic, intratracheal instillation, similar treatment",no effect
same,reduction of RVP,"[1]; single i.v. dose 0.8 mg on day 0, RVP on day 7",~50%
same,reduction of RVP,"[1]; subcutaneous route, 7 day hypoxic rat model",minimal reduction of RVP
same,minimum dose that reduces RVP maximally in acute PH,[1]; total dose per animal,0.8 mg
same,reduction of RVP,[2]; day 10,56%
same,reduction of RVP,[2]; day 14,45%
same,IC50,"[3]; PEG construct, mean ± SD (n), read-out: IC50, AA-Lys-PEG",5.6 ± 1.5 mM
same,"inhibition of rat fibroblast growth, polymeric constructs versus free amino acid","[3]; two synthesis batches (1 and 2), FIG. 15",to a similar extent
